Values after ≈ are worked out from the molar mass of the structure shown.
How the values were obtained:
[1] = test system: S. haemolyticus 05 (Meth^R); assay: Broth microdilution MIC (NCCLS); format: cell-based; settings: Staphylococcus haemolyticus
Protocol: (§1) Compounds were evaluated for antimicrobial activity against a panel of bacterial strains using a broth microdilution assay performed as recommended by the NCCLS (1). The minimum inhibitory concentration (MIC) was defined as the lowest concentration of drug which prevented the growth of the bacteria.
(§2) For this primary panel, the assay was performed in Mueller-Hinton Broth (MHB) with a final bacterial inoculum of 5×10^5 CFU/mL (from an early-log phase culture) and a final volume of 100 μL. Control drugs, including imipenem, vancomycin, Penicillin G, dicloxacillin (vs. MSSA ATCC29213 only), and new compounds were prepared at a concentration equivalent to 2-fold the desired final concentration. Dilution of compounds were prepared directly in the plates by serial 2-fold dilution using a multichannel pipette. Positive and negative growth control were included in each plate.
(§3) The bacterial inocula were prepared as follows. For each strain one isolated colony was used to inoculate a volume of 8 mL of Mueller-Hinton broth and these cultures were incubated overnight (20 h) at 35° C. in a shaking incubator. At the exception of Enterococcus strains, culture were then diluted 1:10 and allowed to grow for an additional one hour at 35° C. in a shaking incubator. The inocula were prepared by diluting the early log-phase (1 h) cultures 1:1000 with fresh Mueller-Hinton broth. E. faecium and E. faecalis were prepared by diluting overnight cultures 1:333 and 1:666, respectively, with fresh Mueller-Hinton broth. A volume of 50 μL of the inocula was added to each well. […] The exact inocula were determined by applying 10 μL of 10-fold serial dilution of the bacterial suspensions on TSA. After overnight incubation at 35° C., colony forming units were manually counted.
(§4) Microtiter plates were incubated during 24 h at 35° C. and were read using a microtiterplate reader (Molecular Devices) at 650 nm as well as by visual observation using a microtiterplate reading mirror.

[2] = test system: S. aureus PC1 (Meth^S)(lac^+); assay: Broth microdilution MIC (NCCLS); format: cell-based; settings: Staphylococcus aureus
Protocol: as §1, §2, §3, §4

[3] = test system: S. aureus ATCC 33593 (Meth^R); assay: Broth microdilution MIC (NCCLS); format: cell-based; settings: Staphylococcus aureus, ATCC33593
Protocol: as §1, §2, §3, §4

[4] = test system: S. aureus ATCC 13709 (Meth^S); assay: Broth microdilution MIC (NCCLS); format: cell-based; settings: Staphylococcus aureus, ATCC13709, S. aureus ATCC 13709 (Meth^S); read-out: MIC
Protocol: as §1, §2, §3, §4

E. faecium ATCC 35667 = assay: Broth microdilution MIC (NCCLS); format: cell-based; settings: Enterococcus faecium, ATCC35667
Protocol: as §1, §2, §3, §4

E. coli ATCC25992 = assay: Broth microdilution MIC (NCCLS); format: cell-based; settings: Escherichia coli
Protocol: as §1, §2, §3, §4

E. faecium VanA (Van^R) = assay: Broth microdilution MIC (NCCLS); format: cell-based; settings: Enterococcus faecium
Protocol: as §1, §2, §3, §4

E. faecalis VanB (Van^R) = assay: Broth microdilution MIC (NCCLS); format: cell-based; settings: Enterococcus faecalis
Protocol: as §1, §2, §3, §4

[5] = test system: S. aureus Spain #356 (Meth^R); assay: Broth microdilution MIC (NCCLS); format: cell-based; settings: Staphylococcus aureus, 24 h
Protocol: as §1, §2, §3, §4

S. aureus ATCC29213 = assay: Human serum binding effect: MIC with and without human serum; format: cell-based, Staphylococcus aureus; settings: 1:1 human serum:MHB
Protocol: The approximate measurement of the degree of binding of the compound to human serum proteins can be achieved by determination of the effect of the addition of human serum to the medium in which the MIC values against a selected bacterial strain is determined. The ratio of the MIC value obtained in presence of added human serum to the MIC value determined without serum addition was used as a measure of serum binding and the results of such determination are presented below in Table 2.
In addition to the standard MIC determination described above, the staphylococcal strain ATCC29213 is also tested in a ratio 1:1, human serum:MHB to obtain a preliminary estimate of the bioactivity of test compounds in serum: The assay was performed in Human Serum and Mueller-Hinton Broth (HSMHB) with a final bacterial inoculum of 1×10^6 CFU/mL (from an early-log phase culture) and a final volume of 100 μL. Control drugs, including imipenem, vancomycin, dicloxacillin, and new compounds were prepared in double-concentrated Mueller-Hinton broth at a concentration equivalent to 4-fold the desired final concentration. Dilution of compounds were prepared directly in the plates by serial 2-fold dilution in double-concentrated Mueller-Hinton using a multichannel pipette. Positive and negative growth controls were included in each plate. […] The inoculum was prepared by diluting the early log-phase (1 h) culture 1:100 with fresh double-concentrated Mueller-Hinton broth. A volume of 25 μL of the inoculum was added to each well. […] The exact inoculum was determined by applying 10 μl of 10-fold serial dilution of the bacterial suspension on TSA. After overnight incubation at 35° C., colony forming units were manually counted.

E. faecalis ATCC 29212 = assay: Broth microdilution MIC (NCCLS); format: cell-based; settings: Enterococcus faecalis, ATCC29212
Protocol: as §1, §2, §3, §4

S. aureus ATCC 29213 = assay: Broth microdilution MIC (NCCLS); format: cell-based; settings: Staphylococcus aureus, ATCC29213; S. aureus ATCC 29213; Mueller-Hinton broth, 24 h at 35° C.; read-out: MIC
Protocol: as §1, §2, §3, §4

[6] = test system: S. aureus 76 (Meth^R)(lac^+); assay: Broth microdilution MIC (NCCLS); format: cell-based; settings: Staphylococcus aureus
Protocol: as §1, §2, §3, §4

P. aeruginosa ATCC 27853 = assay: Broth microdilution MIC (NCCLS); format: cell-based; settings: Pseudomonas aeruginosa, ATCC27853
Protocol: as §1, §2, §3, §4

Structure (SMILES) | MIC [1] [µg/mL] | MIC [2] [µg/mL] | MIC [3] [µg/mL] | MIC [4] [µg/mL] | MIC (E. faecium ATCC 35667) [µg/mL] | MIC (E. coli ATCC25992) [µg/mL] | MIC (E. faecium VanA (Van^R)) [µg/mL] | MIC (E. faecalis VanB (Van^R)) [µg/mL] | MIC [5] [µg/mL] | Human serum binding effect (ratio of MIC value determined with and without human serum added) (S. aureus ATCC29213) | MIC (E. faecalis ATCC 29212) [µg/mL] | MIC (S. aureus ATCC 29213) [µg/mL] | MIC [6] [µg/mL] | MIC (P. aeruginosa ATCC 27853) [µg/mL]
NCCSc1nnc(SC2=C(C(=O)O)N3C(=O)[C@@H](NC(=O)/C(=N\O)c4nc(N)sc4Cl)[C@H]3SC2)s1 [Cmpd 1, (7R)-7-[(Z)-2-(2-amino-5-chlorothiazol-4-yl)-2-(hydroxyimino)acetamido]-3-(2-aminoethylthio-1,3,4-thiadiazol-5-ylthio)-3-cephem-4-carboxylic acid] | 1 (≈ 1.68 µM) | 0.25 (≈ 0.42 µM) | 1 (≈ 1.68 µM) | 0.13 (≈ 0.218 µM) | 0.5 (≈ 0.84 µM) | 0.5 (≈ 0.84 µM) | 2 (≈ 3.36 µM) | 0.25 (≈ 0.42 µM) | 1 (≈ 1.68 µM) | 64 | – | – | – | –
Cc1nc(CSCCN)c(SC2=C(C(=O)O)N3C(=O)[C@@H](NC(=O)/C(=N\O)c4cccc(N)n4)[C@H]3SC2)s1 [Cmpd 2, (7R)-7-[(Z)-2-(2-aminopyrid-6-yl)-2-(hydroxyimino)acetamido]-3-[4-(2-aminoethylthiomethyl)-2-methyl-1,3-thiazol-5-ylthio]-3-cephem-4-carboxylic acid] | 4 (≈ 6.88 µM) | 0.25 (≈ 0.43 µM) | – | 0.13 (≈ 0.223 µM) | 4 (≈ 6.88 µM) | 32 (≈ 55 µM) | 4 (≈ 6.88 µM) | 1 (≈ 1.72 µM) | 2 (≈ 3.44 µM) | 4 | 0.25 (≈ 0.43 µM) | 0.25 (≈ 0.43 µM) | 4 (≈ 6.88 µM) | > 32
NCCSCc1csc(SC2=C(C(=O)O)N3C(=O)[C@@H](NC(=O)/C(=N\O)c4cccc(N)n4)[C@H]3SC2)n1 [Cmpd 4, (7R)-7-[(Z)-2-(2-aminopyrid-6-yl)-2-(hydroxyimino)acetamido]-3-[4-(2-aminoethylthiomethyl)-1,3-thiazol-2-ylthio]-3-cephem-4-carboxylic acid] | – | 0.13 (≈ 0.229 µM) | 1 (≈ 1.76 µM) | 0.13 (≈ 0.229 µM) | 0.25 (≈ 0.44 µM) | 4 (≈ 7.05 µM) | – | 0.5 (≈ 0.881 µM) | 2 (≈ 3.52 µM) | 3 | 0.25 (≈ 0.44 µM) | 0.13 (≈ 0.229 µM) | 2 (≈ 3.52 µM) | –

Reference: patent US6723716B1, “7-acylamino-3-heteroarylthio-3-cephem carboxylic acid antibiotics and prodrugs thereof” (Essential Therapeutics, Inc., priority 1999, dated 2004)
